Test results taken from patent US7064115B2, “(20S)-1α-hydroxy-2α-methyl and 2β-methyl-19-nor-vitamin D3 and their uses” (Wisconsin Alumni Research Foundation, priority 2002, dated 2006).

Columns and labels:
[1] = Intestinal calcium transport in rats on low calcium diet, chronic i.p. doses; format: in vivo, Sprague-Dawley rats; conditions: for Ca transport S/M (mean ± SEM): male weanling rats, 0.02% Ca diet, 5 animals; for Activity in stimulating intestinal calcium transport relative to 1,25-(OH)2D3 (in words): summary of Table 1
Protocol: Intestinal calcium transport was determined as described by Perlman et al. (Biochemistry 29, 190–196, 1990).
(§1) Male, weanling Sprague-Dawley rats were placed on Diet 11 (0.47% Ca) diet+AEK for 11 days, followed by Diet 11 (0.02% Ca)+AEK for 31 days. Dosing (i.p.) began 7 days prior to sacrifice. Doses were given on a daily basis, 24 hours apart. The first 10 cm of the intestine was collected for gut transport studies and serum was collected for bone Ca mobilization analysis.

[2] = Serum calcium (bone calcium mobilization) in rats on low calcium diet, chronic i.p. doses; format: in vivo, Sprague-Dawley rats; design: Serum Ca (mean ± SEM): unit not given here; conditions: for Serum Ca (mean ± SEM): male weanling rats, 0.02% Ca diet, 5 animals; for Bone calcium mobilization activity relative to 1,25-(OH)2D3 (in words): summary of Table 1
Protocol: The in vivo tests to determine serum calcium of rats on a low calcium diet provides an insight to […] or bone activity of (20S)-1α-hydroxy-2α-methyl-19-nor-vitamin D3 and (20S)-1α-hydroxy-2β-methyl-19-nor-vitamin D3.
as §1

[3] = molecular target: T1, vitamin D pig intestinal nuclear receptor (Sus scrofa, UniProt A3RGC1); test: Competitive binding of [3H]-1,25-(OH)2-D3 to the porcine intestinal vitamin D receptor; conditions: FIG. 1; for Binding to the vitamin D receptor (in words): compared with 1,25-(OH)2D3
T1 construct: from tissue; host or cells: pig intestine (nuclear receptor preparation)
T1 sequence (A3RGC1 1-427): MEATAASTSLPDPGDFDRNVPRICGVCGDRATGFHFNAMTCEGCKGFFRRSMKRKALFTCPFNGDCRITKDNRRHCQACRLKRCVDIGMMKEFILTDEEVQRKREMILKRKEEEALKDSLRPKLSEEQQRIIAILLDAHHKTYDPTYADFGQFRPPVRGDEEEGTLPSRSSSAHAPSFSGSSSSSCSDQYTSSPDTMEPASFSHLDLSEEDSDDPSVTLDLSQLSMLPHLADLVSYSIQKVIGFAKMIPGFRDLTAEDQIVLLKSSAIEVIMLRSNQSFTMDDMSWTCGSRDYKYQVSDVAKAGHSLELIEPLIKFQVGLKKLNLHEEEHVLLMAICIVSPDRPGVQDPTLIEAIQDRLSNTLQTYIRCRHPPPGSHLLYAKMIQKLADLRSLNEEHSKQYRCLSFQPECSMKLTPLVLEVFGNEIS
Protocol: FIG. 1 is a graph illustrating the relative activity of (20S)-1α-hydroxy-2α-methyl-19-nor-vitamin D3, (20S)-1α-hydroxy-2β-methyl-19-nor-vitamin D3, and 1α,25-dihydroxyvitamin D3 to compete for binding of [^3H]-1,25-(OH)2-D3 to the vitamin D pig intestinal nuclear receptor; and
Competitive binding of the analogs to the porcine intestinal receptor was carried out by the method described by Dame et al. (Biochemistry 25, 4523–4534, 1986).

HL-60 cells = test: Differentiation of HL-60 promyelocytes into monocytes; format: cell-based; conditions: FIG. 2
Protocol: FIG. 2 is a graph illustrating the percent HL-60 cell differentiation as a function of the concentration of (20S)-1α-hydroxy-2α-methyl-19-nor-vitamin D3, (20S)-1α-hydroxy-2β-methyl-19-nor-vitamin D3, and of 1α,25-dihydroxyvitamin D3.
The differentation of HL-60 promyelocytic into monoctyes was determined as described by Ostrem et al. (J. Boil. Chem. 262, 14164–14171, 1987).

[4] = 130 pmol/day i.p. daily for 7 days
[5] = 260 pmol/day i.p. daily for 7 days

SMILES | Ca transport S/M (mean ± SEM) [1, 4] | Ca transport S/M (mean ± SEM) [1, 5] | Serum Ca (mean ± SEM) [2, 4] | Serum Ca (mean ± SEM) [2, 5] | Binding to the vitamin D receptor (in words) [3] | Affinity for the vitamin D receptor, fold less than 1α,25-dihydroxyvitamin D3 ([3]; relative to 1,25-(OH)2D3) [fold] | Activity in stimulating intestinal calcium transport relative to 1,25-(OH)2D3 (in words) [1] | Bone calcium mobilization activity relative to 1,25-(OH)2D3 (in words) [2] | Potency on HL-60 differentiation relative to 1,25-(OH)2D3 (in words) (HL-60 cells; listed as (20S)-1α-Hydroxy-2α-methyl-19-nor-vitamin D3) | Potency on HL-60 differentiation relative to 1,25-(OH)2D3 (in words) (HL-60 cells; listed as (20S)-1α-hydroxy-2α-methyl-19-nor-vitamin D3) | Binding to the vitamin D receptor (in words) ([3]; listed as 2β-methyl-(20S)-1α-hydroxyvitamin D3) | Potency on HL-60 differentiation relative to 1,25-(OH)2D3 (in words) (HL-60 cells) | HL-60 differentiation activity, times less active than 1,25(OH)2D3 (HL-60 cells; relative to 1,25(OH)2D3) [times]
C=C1/C(=C\C=C2/CCC[C@]3(C)[C@@H]([C@H](C)CCCC(C)(C)O)CC[C@@H]23)C[C@@H](O)C[C@@H]1O [1α,25-(OH)2D3, 1α,25-dihydroxyvitamin D3, reference compound] | 5.3 ± 0.42 | 6.5 ± 0.84 | 5.0 ± 0.05 | 5.5 ± 0.16 | – | – | – | – | – | – | – | – | –
CC(C)CCC[C@H](C)C1CCC2/C(=C/C=C3C[C@@H](O)C(C)[C@H](O)C3)CCC[C@@]21C (stereo partly drawn) [(20S)-1α-(OH)-2α-methyl-19-nor-D3, (20S)-1α-hydroxy-2α-methyl-19-nor-vitamin D3] | 8.6 ± 0.90 | 6.7 ± 0.68 | 10.0 ± 0.20 | 12.7 ± 0.15 | much less active than 1,25(OH)2D3 | 100 | high activity relative to that of 1,25-(OH)2D3 | higher bone calcium mobilization activity, as compared to 1,25-(OH)2D3 | only slightly less active than 1,25-(OH)2D3 | almost as potent as 1,25-(OH)2D3 | – | – | –
CC(C)CCC[C@H](C)C1CCC2/C(=C/C=C3C[C@@H](O)C(C)[C@H](O)C3)CCC[C@@]21C (stereo partly drawn) [(20S)-1α-(OH)-2β-methyl-19-nor-D3, (20S)-1α-hydroxy-2β-methyl-19-nor-vitamin D3] | 6.8 ± 0.73 | 5.7 ± 0.45 | 4.8 ± 0.04 | 5.1 ± 0.04 | much less active than 1,25(OH)2D3 | – | about the same as 1,25-(OH)2D3 | about the same as 1,25-(OH)2D3 | – | – | does not bind | only slightly less active than 1,25-(OH)2D3 | 100
